Columns and labels:
[1] = biological target: T1, FAK (Homo sapiens, UniProt Q05397); assay: biochemical
[2] = biological target: T1, FAK; assay: Cell-based capture ELISA for inhibition of FAK autophosphorylation [pY397] in MiaPaCa2 cells
Protocol: Cell-Based Assays for Inhibition of FAK Autophosphorylation: MiaPaCa2 and U87MG
ELISA kit from Invitrogen (KHO0441).
Reagents Provided in Biosource FAK [pY397]
The cells were then suspended in cell assay medium.

[3] = MIA-PaCa2 cells on fibronectin, 2 h, no plasma, read-out: Mean FAK Cell Mechanistic IC50 MIA-PaCa2
[4] = MIA-PaCa2 cells, + 50% human plasma, read-out: Mean FAK Cell Mechanistic IC50 + 50% hP MIA-PaCa2
[5] = MIA-PaCa2 cells, + 50% mouse plasma (Table 2), read-out: Mean FAK Cell Mechanistic IC50 + 50% mP MIA-PaCa2
[6] = MIA-PaCa2 cells, + 50% mouse plasma (Table 3), read-out: Mean FAK Cell Mechanistic IC50 + 50% mP MIA-PaCa2

T1 sequence (Q05397 whole entry): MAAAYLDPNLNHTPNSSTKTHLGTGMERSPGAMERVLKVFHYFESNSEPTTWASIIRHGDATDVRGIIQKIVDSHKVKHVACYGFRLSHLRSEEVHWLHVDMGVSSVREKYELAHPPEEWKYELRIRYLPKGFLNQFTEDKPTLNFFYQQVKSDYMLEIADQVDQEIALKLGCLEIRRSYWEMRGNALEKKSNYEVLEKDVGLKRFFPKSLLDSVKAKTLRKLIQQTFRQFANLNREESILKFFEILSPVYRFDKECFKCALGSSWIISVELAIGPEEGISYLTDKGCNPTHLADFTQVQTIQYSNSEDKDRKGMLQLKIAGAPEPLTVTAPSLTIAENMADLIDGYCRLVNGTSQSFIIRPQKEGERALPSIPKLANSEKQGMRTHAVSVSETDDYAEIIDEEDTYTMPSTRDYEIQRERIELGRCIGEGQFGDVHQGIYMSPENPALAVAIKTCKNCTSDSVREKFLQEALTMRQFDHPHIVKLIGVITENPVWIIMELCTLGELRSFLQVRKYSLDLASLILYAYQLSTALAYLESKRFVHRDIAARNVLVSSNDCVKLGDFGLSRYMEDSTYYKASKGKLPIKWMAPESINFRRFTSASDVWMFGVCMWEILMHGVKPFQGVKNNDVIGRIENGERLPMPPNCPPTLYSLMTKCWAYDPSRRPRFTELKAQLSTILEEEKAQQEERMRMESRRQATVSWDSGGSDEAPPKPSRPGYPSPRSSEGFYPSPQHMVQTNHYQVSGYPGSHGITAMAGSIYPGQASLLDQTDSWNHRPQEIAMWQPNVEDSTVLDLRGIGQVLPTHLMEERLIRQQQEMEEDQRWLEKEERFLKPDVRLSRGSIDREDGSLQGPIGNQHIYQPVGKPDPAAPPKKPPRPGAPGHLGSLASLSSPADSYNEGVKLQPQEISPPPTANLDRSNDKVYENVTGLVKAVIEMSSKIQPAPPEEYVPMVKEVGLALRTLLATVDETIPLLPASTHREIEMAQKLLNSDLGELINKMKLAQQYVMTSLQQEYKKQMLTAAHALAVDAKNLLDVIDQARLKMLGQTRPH

| SMILES | IC50 [1] [µM] | IC50 [2, 3] [µM] | IC50 [2, 4] [µM] | IC50 [2, 5] [µM] | IC50 [2, 6] [µM] |
| --- | --- | --- | --- | --- | --- |
| CCP(=O)(CC)Cc1ccc(Nc2ncc(C(F)(F)F)c(Nc3ccccc3C(=O)NC)n2)cc1 [Example 24, 2-{[2-({4-[(Diethylphosphoryl)methyl]phenyl}amino)-5-(trifluoromethyl)pyrimidin-4-yl]amino}-N-methylbenzamide] | < 1 | < 1 | < 1 | < 1 |  |
| CCOc1cc(CP(=O)(OCC)OCC)ccc1Nc1ncc(C(F)(F)F)c(Nc2ccc([C@H]3CC[C@@H](C(=O)O)CC3)c3c2C(=O)N(C)C3)n1 [Example 257, cis-4-(7-{[2-({4-[(Diethoxyphosphoryl)methyl]-2-ethoxyphenyl}amino)-5-(trifluoromethyl)pyrimidin-4-yl]amino}-2-methyl-1-oxo-2,3-dihydro-1H-isoindol-4-yl)cyclohexanecarboxylic acid] | < 1 |  |  |  | < 1 |
| CCOP(C)(=O)Cc1ccc(Nc2ncc(C(F)(F)F)c(Nc3ccc([C@H]4CC[C@H](O)CC4)c4c3C(=O)N(C)C4)n2)cc1 (stereo partly drawn) [Example 174, Ethyl (4-{[4-{[7-(trans-4-hydroxycyclohexyl)-2-methyl-3-oxo-2,3-dihydro-1H-isoindol-4-yl]amino}-5-(trifluoromethyl)pyrimidin-2-yl]amino}benzyl) methylphosphinate] | < 1 |  |  |  | < 1 |
| CCOP(=O)(Cc1ccc(Nc2ncc(Cl)c(Nc3ccc([C@H]4CC[C@H](O)CC4)c4c3C(=O)N(C)C4)n2)c(OC)c1)OCC [Example 250, Diethyl {4-[(5-chloro-4-{[7-(trans-4-hydroxycyclohexyl)-2-methyl-3-oxo-2,3-dihydro-1H-isoindol-4-yl]amino}pyrimidin-2-yl)amino]-3-methoxybenzyl}phosphonate] | < 1 |  |  |  | < 1 |
| CCOP(=O)(Cc1ccc(Nc2ncc(C(F)(F)F)c(Nc3ccc(C(=O)OC)c4c3C(=O)N(C)C4)n2)c(OC)c1)OCC [Example 119, Methyl 7-{[2-({4-[(diethoxyphosphoryl)methyl]-2-methoxyphenyl}amino)-5-(trifluoromethyl)pyrimidin-4-yl]amino}-2-methyl-1-oxo-2,3-dihydro-1H-isoindole-4-carboxylate] | < 1 |  |  |  | < 1 |
| CN(c1ncccc1CNc1nc(Nc2ccc(P3(=O)OCC(C)(C)CO3)cc2)ncc1C(F)(F)F)S(C)(=O)=O [Example 60, N-[3-({[2-{[4-(5,5-dimethyl-2-oxido-1,3,2-dioxaphosphinan-2-yl)phenyl]amino}-5-(trifluoromethyl)pyrimidin-4-yl]amino}methyl)pyridin-2-yl]-N-methylmethanesulfonamide] | < 1 | < 1 | < 1 | < 1 |  |
| CCOP(=O)(Cc1ccc(Nc2ncc(C(F)(F)F)c(Nc3ccc(N4CC[C@H](O)C4)c4c3C(=O)N(C)C4)n2)c(OC)c1)OCC [Example 84, Diethyl (4-{[4-({7-[(3S)-3-hydroxypyrrolidin-1-yl]-2-methyl-3-oxo-2,3-dihydro-1H-isoindol-4-yl}amino)-5-(trifluoromethyl)pyrimidin-2-yl]amino}-3-methoxybenzyl)phosphonate] | < 1 |  |  | < 1 |  |
| CCOP(=O)(Cc1ccc(Nc2ncc(C(F)(F)F)c(Nc3ccc([C@H]4CC[C@@H](O)CC4)cc3C(=O)N(C)C)n2)c(OC)c1)OCC [Example 194, Diethyl (4-{[4-{[2-(dimethylcarbamoyl)-4-(cis-4-hydroxycyclohexyl)phenyl]amino}-5-(trifluoromethyl)pyrimidin-2-yl]amino}-3-methoxybenzyl)phosphonate] | < 1 |  |  |  | 1 to 10 |
| CCOP(C)(=O)Cc1ccc(Nc2ncc(C(F)(F)F)c(Nc3ccc(N4CCC(O)C4)c4c3C(=O)N(C)C4)n2)cc1 (stereo not drawn) [Example 81, Ethyl (4-{[4-{[7-(3-hydroxypyrrolidin-1-yl)-2-methyl-3-oxo-2,3-dihydro-1H-isoindol-4-yl]amino}-5-(trifluoromethyl)pyrimidin-2-yl]amino}benzyl)methylphosphinate] | < 1 | < 1 | < 1 |  |  |
| CCOP(=O)(O)Cc1ccc(Nc2ncc(C(F)(F)F)c(Nc3ccccc3C(=O)NC)n2)c(OC)c1 [Example 143, Ethyl hydrogen (3-methoxy-4-{[4-{[2-(methylcarbamoyl)phenyl]amino}-5-(trifluoromethyl)pyrimidin-2-yl]amino}benzyl)phosphonate] | < 1 |  |  |  | < 1 |
| CCOP(=O)(Cc1ccc(Nc2ncc(C(F)(F)F)c(Nc3ccc([C@H]4CC[C@@](C)(O)CC4)c4c3C(=O)N(C)C4)n2)cc1)OCC [Example 184, Diethyl (4-{[4-{[7-(cis-4-hydroxy-4-methylcyclohexyl)-2-methyl-3-oxo-2,3-dihydro-1H-isoindol-4-yl]amino}-5-(trifluoromethyl)pyrimidin-2-yl]amino}benzyl) phosphonate] | < 1 |  |  |  | < 1 |
| CCOP(=O)(Cc1ccc(Nc2ncc(C(F)(F)F)c(Nc3cccc4ccn(C)c(=O)c34)n2)cc1)OCC [Example 131, Diethyl [4-({4-[(2-methyl-1-oxo-1,2-dihydroisoquinolin-8-yl)amino]-5-(trifluoromethyl)pyrimidin-2-yl}amino)benzyl]phosphonate] | < 1 |  |  |  | < 1 |
| C=C(C)c1ccc(Nc2nc(Nc3ccc(CP(C)(=O)OCC)cc3)ncc2C(F)(F)F)c2c1CN(C)C2=O (stereo not drawn) [Example 68, Ethyl methyl(4-{[4-{[2-methyl-3-oxo-7-(prop-1-en-2-yl)-2,3-dihydro-1H-isoindol-4-yl]amino}-5-(trifluoromethyl)pyrimidin-2-yl]amino}benzyl)phosphinate] | < 1 | < 1 | 1 to 10 |  |  |
| CCOP(C)(=O)Cc1ccc(Nc2ncc(C(F)(F)F)c(Nc3ccc(-c4ccccc4)c4c3C(=O)N(C)C4)n2)cc1 (stereo not drawn) [Example 66, Ethyl methyl[4-({4-[(2-methyl-3-oxo-7-phenyl-2,3-dihydro-1H-isoindol-4-yl)amino]-5-(trifluoromethyl)pyrimidin-2-yl}amino)benzyl]phosphinate] | < 1 |  |  | < 1 |  |
| CCCCOP(=O)(Cc1cccc(Nc2ncc(C(F)(F)F)c(NCc3cccnc3N(C)S(C)(=O)=O)n2)c1)OCCCC [Example 54, dibutyl [3-({4-[({2-[methyl(methylsulfonyl)amino]pyridin-3-yl}methyl)amino]-5-(trifluoromethyl)pyrimidin-2-yl}amino)benzyl]phosphonate] | < 1 |  |  | > 10 |  |
| CN(c1ncccc1CNc1nc(Nc2cccc(P3(=O)OCC(C)(C)CO3)c2)ncc1C(F)(F)F)S(C)(=O)=O [Example 59, N-[3-({[2-{[3-(5,5-dimethyl-2-oxido-1,3,2-dioxaphosphinan-2-yl)phenyl]amino}-5-(trifluoromethyl)pyrimidin-4-yl]amino}methyl)pyridin-2-yl]-N-methylmethanesulfonamide] | < 1 |  |  | 1 to 10 |  |
| CCOP(=O)(Cc1ccc(Nc2ncc(C(F)(F)F)c(Nc3ccc([C@H]4CC[C@H](O)CC4)nc3C(=O)NC)n2)c(OC)c1)OCC [Example 232, Diethyl (4-{[4-{[6-(trans-4-hydroxycyclohexyl)-2-(methylcarbamoyl)pyridin-3-yl]amino}-5-(trifluoromethyl)pyrimidin-2-yl]amino}-3-methoxybenzyl)phosphonate] | < 1 |  |  |  | < 1 |
| CN(c1ncccc1CNc1nc(Nc2cccc(P(C)(C)=O)c2)ncc1C(F)(F)F)S(C)(=O)=O [Example 15, N-[3-({[2-{[3-(Dimethylphosphoryl)phenyl]amino}-5-(trifluoromethyl)pyrimidin-4-yl]amino}methyl)pyridin-2-yl]-N-methylmethanesulfonamide] | < 1 | < 1 | < 1 | < 1 |  |
| CCOP(=O)(O)Cc1ccc(Nc2ncc(C(F)(F)F)c(Nc3ccc(-c4cnn(CCCO)c4)c4c3C(=O)N(C)C4)n2)cc1 [Example 182, Sodium ethyl (4-{[4-({7-[1-(3-hydroxypropyl)-1H-pyrazol-4-yl]-2-methyl-3-oxo-2,3-dihydro-1H-isoindol-4-yl}amino)-5-(trifluoromethyl)pyrimidin-2-yl]amino}benzyl)phosphonate] | < 1 |  |  |  | 1 to 10 |
| CCOP(C)(=O)Cc1ccc(Nc2ncc(C(F)(F)F)c(Nc3ccc(Br)c4c3C(=O)N(C)C4)n2)cc1 (stereo not drawn) [Example 61, Ethyl [4-({4-[(7-bromo-2-methyl-3-oxo-2,3-dihydro-1H-isoindol-4-yl)amino]-5-(trifluoromethyl)pyrimidin-2-yl}amino)benzyl]methylphosphinate] | < 1 | < 1 | 1 to 10 |  |  |
| CCOP(C)(=O)Cc1ccc(Nc2ncc(C(F)(F)F)c(Nc3ccc(N4CCCCC4)c4c3C(=O)N(C)C4)n2)cc1 (stereo not drawn) [Example 82, Ethyl methyl(4-{[4-{[2-methyl-3-oxo-7-(piperidin-1-yl)-2,3-dihydro-1H-isoindol-4-yl]amino}-5-(trifluoromethyl)pyrimidin-2-yl]amino}benzyl)phosphinate] | < 1 | < 1 | < 1 |  |  |
| CCOP(=O)(Cc1ccc(Nc2ncc(C(F)(F)F)c(Nc3ccc([C@H]4CC[C@@H](O)CC4)cc3C(=O)NC)n2)cc1)OCC [Example 138, Diethyl (4-{[4-{[4-(cis-4-hydroxycyclohexyl)-2-(methylcarbamoyl)phenyl]amino}-5-(trifluoromethyl)pyrimidin-2-yl]amino}benzyl)phosphonate] | < 1 |  |  |  | < 1 |
| CCOP(C)(=O)Cc1ccc(Nc2ncc(C(F)(F)F)c(Nc3ccc(C#CC(C)(C)O)c4c3C(=O)N(C)C4)n2)cc1 (stereo not drawn) [Example 75] | < 1 | < 1 | < 1 |  |  |
